Measurements reported in article PMC9667936, “Functional mapping of the 14-3-3 hub protein as a guide to design 14-3-3 molecular glues” (Chemical Science, 2022).
pKd: −log10 of the molar value. Where a SMILES comes first, the peptide text is derived from it. [ ]: non-standard residue; d: D form. ξ: configuration not given here. Phe(4-NO2) = N[C@@H](Cc1ccc([N+](=O)[O-])cc1)C(=O)O; ξAla(4-thiazolyl) = NC(Cc1cscn1)C(=O)O; pS = N[C@@H](COP(=O)(O)O)C(=O)O; β3hS = N[C@@H](CO)CC(=O)O; Nva = CCC[C@H](N)C(=O)O; ξβ3hS = NC(CO)CC(=O)O; βAla = NCCC(=O)O

Biological target: T1, 14-3-3γ (Homo sapiens, UniProt P61981)
T1 construct: made in house; host or cells: E. coli NiCo21 (DE3)
T1 sequence (P61981 1-247): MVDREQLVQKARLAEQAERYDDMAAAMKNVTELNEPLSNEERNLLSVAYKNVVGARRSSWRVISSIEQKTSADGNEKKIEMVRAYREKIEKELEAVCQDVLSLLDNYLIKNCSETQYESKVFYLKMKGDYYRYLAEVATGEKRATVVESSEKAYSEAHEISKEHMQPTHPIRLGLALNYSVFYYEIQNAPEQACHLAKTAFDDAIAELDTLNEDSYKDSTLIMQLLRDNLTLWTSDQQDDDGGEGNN
Experiment: Fluorescence anisotropy (FA) binary binding study: 14-3-3 titrated to fluorescein-labelled peptide
Conditions: for ΔΔG of point mutation (FA): relative to 1, mean ± SD, SD; for Affinity Kd / pKd: Table S4, point-mutated peptides; for ΔΔG of point mutation (FA) / Affinity Kd / pKd: FA; for Affinity Kd: 10 nM FITC-labelled peptide; for pKd: 14-3-3 titrated to 10 nM FITC-labelled peptide, HEPES pH 7.4, room temperature, 4PL fit, read-out: Affinity Kd; for ΔG (FA): Table S1
Procedure, shortened: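 N-terminal His6-tagged full-length human 14-3-3γ expressed in E. coli, Ni-NTA purified and dialyzed into 25 mM HEPES pH 8.0, 100 mM NaCl, 10 mM MgCl2, 500 μM TCEP. Tag-cleaved 14-3-3σ truncated after T231 used for crystallography. Labelled peptides made by Fmoc solid-phase synthesis.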

[1] = Table S4, FA Kd / Kd of 1, replicate 1
[2] = Table S4, FA Kd / Kd of 1, replicate 2
[3] = Table S4, FA Kd / Kd of 1, replicate 3
[4] = Table S4, FA Kd of peptide divided by Kd of 1, mean of n = 3
[5] = Table S4, calculated from FA Kd, mean of n = 3
[6] = Table S4, from FA Kd, replicate 1
[7] = Table S4, from FA Kd, replicate 2
[8] = Table S4, from FA Kd, replicate 3
[9] = Table S4, ΔG minus ΔG of 1, FA, replicate 1
[10] = Table S4, ΔG minus ΔG of 1, FA, replicate 2
[11] = Table S4, ΔG minus ΔG of 1, FA, replicate 3
[12] = Table S4, ΔG of peptide minus ΔG of 1, FA, mean of n = 3

SMILES	ΔΔG of point mutation (FA) [kcal/mol]	Affinity Kd (replicate 1) [nM]	Affinity Kd (replicate 2) [nM]	Affinity Kd (replicate 3) [nM]	pKd (mean of n = 3)	Fold change to 1 [1]	Fold change to 1 [2]	Fold change to 1 [3]	Fold change to 1 [4]	ΔG [5] [kcal/mol]	ΔG [6] [kcal/mol]	ΔG [7] [kcal/mol]	ΔG [8] [kcal/mol]	ΔΔG to 1 [9] [kcal/mol]	ΔΔG to 1 [10] [kcal/mol]	ΔΔG to 1 [11] [kcal/mol]	ΔΔG to 1 [12] [kcal/mol]	other results
CCC[C@H](NC(=O)[C@H](N)CCCCN)C(=O)N[C@@H](Cc1ccc([N+](=O)[O-])cc1)C(=O)NC(Cc1cscn1)C(=O)N[C@@H](COP(=O)(O)O)C(=O)N[C@@H](Cc1ccccc1)C(=O)N[C@@H](CO)CC(=O)NCCC(=O)N[C@@H](Cc1ccc([N+](=O)[O-])cc1)C(=O)N[C@@H](CCCCN)C(N)=O (stereo partly drawn) [4b] (H-[dK][Nva][Phe(4-NO2)][ξAla(4-thiazolyl)][pS]F[β3hS][βAla][Phe(4-NO2)]K-NH2; N-terminus and C-terminus assumed)	-0.1 ± 0.3	46	33	87	7.26	0.9	0.5	1.2	0.8	-9.9	-10.0	-10.2	-9.6	-0.1	-0.5	0.1	-0.1	–
CCC[C@H](NC(=O)[C@H](N)CCCCN)C(=O)N[C@@H](Cc1ccc([N+](=O)[O-])cc1)C(=O)NC(Cc1cscn1)C(=O)N[C@@H](COP(=O)(O)O)C(=O)N[C@@H](C)C(=O)N[C@@H](CO)CC(=O)NCCC(=O)N[C@@H](Cc1ccc([N+](=O)[O-])cc1)C(=O)N[C@@H](CCCCN)C(N)=O (stereo partly drawn) [4c] (H-[dK][Nva][Phe(4-NO2)][ξAla(4-thiazolyl)][pS]A[β3hS][βAla][Phe(4-NO2)]K-NH2; N-terminus and C-terminus assumed)	1.8 ± 0.1	1200	1200	1600	5.89	24.0	17.0	21.3	20.8	-8.0	-8.1	-8.1	-7.9	1.9	1.7	1.8	1.8	–
CCC[C@H](NC(=O)[C@H](N)CCCCN)C(=O)N[C@@H](Cc1ccc([N+](=O)[O-])cc1)C(=O)NC(Cc1cscn1)C(=O)N[C@@H](COP(=O)(O)O)C(=O)N[C@@H](Cc1ccc([N+](=O)[O-])cc1)C(=O)N[C@@H](CO)CC(=O)NCCC(=O)N[C@@H](Cc1ccc(O)cc1)C(=O)N[C@@H](CCCCN)C(N)=O (stereo partly drawn) [5a] (H-[dK][Nva][Phe(4-NO2)][ξAla(4-thiazolyl)][pS][Phe(4-NO2)][β3hS][βAla]YK-NH2; N-terminus and C-terminus assumed)	–	1700	1200	1700	5.82	33.2	17.1	22.5	24.2	-7.9	-7.9	-8.1	-7.9	2.1	1.7	1.8	1.9	14-3-3 binding affinity, result in words (replacement of nitro by hydroxy group at +4, compared with 5b, FA and ITC): did not restore the binding affinity
CCC[C@H](NC(=O)[C@H](N)CCCCN)C(=O)N[C@@H](Cc1ccc([N+](=O)[O-])cc1)C(=O)NC(Cc1cscn1)C(=O)N[C@@H](COP(=O)(O)O)C(=O)N[C@@H](Cc1ccc([N+](=O)[O-])cc1)C(=O)N[C@@H](CO)CC(=O)NCCC(=O)N[C@@H](Cc1ccccc1)C(=O)N[C@@H](CCCCN)C(N)=O (stereo partly drawn) [5b] (H-[dK][Nva][Phe(4-NO2)][ξAla(4-thiazolyl)][pS][Phe(4-NO2)][β3hS][βAla]FK-NH2; N-terminus and C-terminus assumed)	–	1300	1200	1800	5.85	24.3	16.9	24.9	22.0	-8.0	-8.0	-8.1	-7.8	1.9	1.7	1.9	1.8	–
CCC[C@H](NC(=O)[C@H](N)CCCCN)C(=O)N[C@@H](Cc1ccc([N+](=O)[O-])cc1)C(=O)NC(Cc1cscn1)C(=O)N[C@@H](COP(=O)(O)O)C(=O)N[C@@H](Cc1ccc([N+](=O)[O-])cc1)C(=O)N[C@@H](CO)CC(=O)NCCC(=O)N[C@@H](C)C(=O)N[C@@H](CCCCN)C(N)=O (stereo partly drawn) [5c] (H-[dK][Nva][Phe(4-NO2)][ξAla(4-thiazolyl)][pS][Phe(4-NO2)][β3hS][βAla]AK-NH2; N-terminus and C-terminus assumed)	–	3200	2200	2900	5.55	62.1	31.0	39.8	44.3	-7.6	-7.5	-7.7	-7.5	2.4	2.0	2.2	2.2	–
CCC[C@H](NC(=O)[C@H](N)CCCCN)C(=O)N[C@@H](Cc1ccc([N+](=O)[O-])cc1)C(=O)NC(Cc1cscn1)C(=O)N[C@@H](COP(=O)(O)O)C(=O)N[C@@H](Cc1ccc([N+](=O)[O-])cc1)C(=O)NC(CO)CC(=O)NCCC(=O)N[C@@H](Cc1ccc([N+](=O)[O-])cc1)C(=O)N[C@@H](CCCCN)C(N)=O (stereo partly drawn) [compound 1] (H-[dK][Nva][Phe(4-NO2)][ξAla(4-thiazolyl)][pS][Phe(4-NO2)][ξβ3hS][βAla][Phe(4-NO2)]K-NH2)	–	52	71	74	–	–	–	–	–	-9.8	-9.9	-9.7	-9.7	–	–	–	–	ΔG (FA) (calculated from FA KD, mean of n = 3): -10.5 kcal/mol; ΔG (FA) (from FA KD, replicate 1): -10.6 kcal/mol; ΔG (FA) (from FA KD, replicate 2): -10.6 kcal/mol; ΔG (FA) (from FA KD, replicate 3): -10.4 kcal/mol; ΔG (Table S2, calculated from FA KD, mean of n = 3): -10,53 kcal/mol; ΔG (Table S2, from FA KD, replicate 1): -10,61 kcal/mol; ΔG (Table S2, from FA KD, replicate 2): -10,56 kcal/mol; ΔG (Table S2, from FA KD, replicate 3): -10,41 kcal/mol; free binding energy ΔG (FA) (from FA KD): -10.5 kcal/mol
